Values joined by “and” are separate entries in the source; they are usually repeats but may differ in a detail not shown here. Identical values can stand only once.

The subject of assay [1] is cox-2 gene transcription in human colon cancer DLD-1 cells. As to conditions: Mutoh et al. 2000, read-out: IC50, suppression of cox-2 gene transcription; cited from earlier work.
For assay [2], the system named is prostaglandin endoperoxide synthase. As to conditions: Kalkbrenner et al. 1992; read-out: IC50, inhibition of prostaglandin endoperoxide synthase; cited from earlier work.
For the next assay, the system named is COX-2. The following applies: commercially available pure (+)-catechin; Noreen et al. 1998; cited from earlier work.
In a further assay the test system is COX-1. As to conditions: (+)-catechin isolated from the bark of Ceiba pentandra; Noreen et al. 1998; read-out: IC50, COX-1 inhibition; cited from earlier work.
In another assay the test system is HMGB1. The assay is described as follows: Hyperoxia plus PA infection, extracellular HMGB1 in lung lavage fluids. Format: in vivo, mice. As to conditions: RES 50 mg/kg, UP446 250 mg/kg. The text has this:
Accumulation of extracellular HMGB1 in the airways can compromise innate immunity, leading to an impaired ability to clear invading pathogens and apoptotic neutrophils. This can subsequently cause acute respiratory tract infections, lung injury and even death (Entezari et al., 2012; Patel et al., 2013). To determine whether UP446-attenuated acute lung injury in bacterially infected mice exposed to hyperoxia is due to its impact on the accumulation of extracellular HMGB1 in the airways, the levels of HMGB1 were measured in the lung lavage fluids. As shown previously, prolonged exposure of these mice to hyperoxia followed by microbial infection increased the accumulation of HMGB1 in the airways. […] This elevation can be reduced by pretreatment with either resveratrol (RES) or UP446. […] This correlates with the significant enhanced ability of UP446 to improve host defense mechanisms against microbial infection in the respiratory system.

For another assay, the system named is BAL total protein. The assay is described as follows: Hyperoxia plus PA infection, total protein in lung lavage fluid. The following applies: RES 50 mg/kg, UP446 250 mg/kg; >90% oxygen 48 hours, 24 hours after PA.
Assay [3] concerns Pseudomonas aeruginosa. The assay is described as follows: Hyperoxia plus PA infection, bacterial load in lung homogenate. The class given is in vivo, mice. As to conditions: RES 50 mg/kg, UP446 250 mg/kg; hyperoxia and PA.
In assay [4] the test system is Pseudomonas aeruginosa. The assay is described as follows: Hyperoxia plus PA infection, bacterial load in the airways. The following applies: RES 50 mg/kg, UP446 250 mg/kg; hyperoxia and PA.
Description: To investigate the effects of regulating natural host defense homeostasis, mice were treated with the bioflavonoid composition, UP446, at 250 mg/kg orally for seven days prior to being exposed to >90% oxygen for 48 hours (with continued UP446 treatment) before being inoculated with microbial Pseudomonas aeruginosa (PA).
The subject of another assay is MIP-2/CINC-3. The assay is described as follows: LPS-induced acute lung injury, lung homogenate MIP-2/CINC-3 ELISA. The following applies: UP446 250 mg/kg; SB 500 mg/kg. (An ELISA detects its analyte on a solid surface through an enzyme-linked reagent.)
In a further assay the test system is TNF-α. The assay is described as follows: LPS-induced acute lung injury, serum TNF-α ELISA. Format: in vivo, Sprague Dawley rats. The following applies: UP446 250 mg/kg; SB 500 mg/kg. On the procedure: The presence of TNF-α in undiluted rat serum was measured using the rat TNF-α Quantikine ELISA kit from RandD Systems (product #: RTA00) as follows: undiluted serum was added to a microplate coated with TNF-α antibody. […] The washing was repeated, and enzyme substrate was added to the plate.

The subject of assay [5] is LPS-induced endotoxemia and sepsis. The assay is described as follows: LPS-induced sepsis model, composition versus its constituents, Colby synergy. Format: in vivo, CD-1 mice. The following applies: for Mortality rate / Survival rate: SB 500, UP894-II 250, RM405 200, RM406 50 mg/kg. On the procedure: On the 8th day, mice were injected intraperitoneally (i.p.) with 25 mg/kg LPS dissolved in PBS at 10 mL/kg. Mice in the UP894-II-treated group received a daily dose of UP894-II at 250 mg/kg. All mice continued to receive the treatment daily for the duration of study, which was completed on the 6th day post LPS injection. Following a median lethal dose of LPS (25 mg/kg) by i.p. administration, animals are expected to develop sepsis within a few hours. If untreated, mice would start to die within 24 hours. Animals were observed hourly. In the current study, we monitored the mice for 6 days after LPS injection.
For the blending of these plant extracts to have unexpected synergy, the observed inhibition needs to be greater than the calculated value.
The survival rate was calculated as: 100-[(deceased mice/total number of mice)×100]%. *p≤0.05

Assay [6] has as its system LPS-induced acute lung injury. The assay is described as follows: LPS-induced acute lung injury, lung histopathology (H&E). Format: in vivo, Sprague Dawley rats. On the procedure:
The severity of lung damage as a result of intratracheal LPS was assessed using HandE-stained lung tissue. The left lobe of the lung was used for the histopathology analysis.

The subject of assay [7] is LPS-induced endotoxemia and sepsis. The assay is described as follows: LPS-induced sepsis model, survival (UP446 study). Format: in vivo, CD-1 mice. As to conditions: UP446 250 mg/kg, Sodium Butyrate 500 mg/kg oral. On the procedure: CD-1 mice and Sprague Dawley rats were purchased from a USDA approved vendor. Eight weeks old male CD-1 mice and SD rats were purchased form Charles River Laboratories, Inc. (Wilmington, Mass.). Animals were acclimated upon arrival and used for the study. They were housed in a temperature-controlled room (71-72° F.) on a 12-hour light-dark cycle and provided with feed and water ad libitum.
This model used survival rate of animals as the end point measurement (Wang et al., 1999). Lipopolysaccharide (LPS) is an integral component of the outer membrane of gram-negative bacteria and a major contributing factor in the initiation of a generalized inflammatory process that may lead to endotoxin shock. It is a state mediated principally by macrophages/monocytes and is attributed to excessive production of several early phase cytokines such as TNF-α, IL-1, IL-6 and gamma interferon (IFN-γ) as well as a late-stage mediator, HMGB1. Following a median lethal dose of LPS (25 mg/kg) administration dissolved in phosphate-buffered saline (PBS; Lifeline, Lot #07641), animals develop endotoxemia and HMGB1 would be detected in the serum at 8 hours and reach to a peak and plateau levels from 16 to 32 hours after LPS. […] In the current study, we monitored the mice for 4 days after LPS injection. […]
The survival rate was calculated as: 100-[(deceased mice/total number of mice)×100]%.

The next assay deals with CRP. As to conditions: UP446 250 mg/kg; SB 500 mg/kg.
For another assay, the system named is IL-1β. The assay is described as follows: LPS-induced acute lung injury, serum IL-1β ELISA. Format: in vivo, Sprague Dawley rats. As to conditions: UP446 250 mg/kg; SB 500 mg/kg. On the procedure: The presence of IL-10 in undiluted rat serum was measured using the Rat IL-10 Quantikine ELISA kit from RandD Systems (product #: RLB00) as follows: undiluted serum was added to a microplate coated with IL-1β antibody. […] The washing was repeated, and enzyme substrate was added to the plate.

[8] abbreviates: 144 hr post LPS (end of observation).

Description for BAL total protein: To investigate the effects of regulating natural host defense homeostasis, mice were treated with the bioflavonoid composition, UP446, at 250 mg/kg orally for seven days prior to being exposed to >90% oxygen for 48 hours (with continued UP446 treatment) before being inoculated with microbial Pseudomonas aeruginosa (PA). Mice were euthanized 24 hours after bacterial inoculation, the lungs were lavaged, and total protein content was determined from the lung lavage fluid.
Description for CRP: (§1) In this study, we treated Sprague Dawley rats with the test materials orally for 7 days before model induction with LPS. On the 8th day, an hour after oral treatment, LPS was instilled intratracheally (i.t.) at 10 mg/kg dissolved in 0.1 mL/100 g PBS to each rat. The normal control rats received the same volume i.t. of PBS only.
We sacrificed surviving animals 24 hours after intratracheal LPS administration. At necropsy, the bronchoalveolar lavage (BAL) was collected by intratracheal injection of 1.5 mL PBS into the right lobe of the lung, followed by a gentle aspiration at least 3 times. Pooled, recovered fluid was centrifuged at 1,500 rpm for 10 min at 4° C., and was used to measure cytokines (e.g. IL-6) and pulmonary protein levels.
The presence of CRP in rat BAL diluted 1:1,000 was measured using the C-Reactive Protein (PTX1) Rat ELISA kit from Abcam (product #: ab108827) as follows: 1:1,000 diluted BAL was added to a microplate coated with CRP antibody. After 2 hours on a plate shaker at room temperature, CRP in BAL was bound to the plate and the plate was thoroughly washed. […] After developing for 10 minutes at room temperature, a stop solution was added, and the absorbance was read at 450 nm. The concentration of CRP was calculated based on the absorbance readings of an CRP standard curve.
Description for MIP-2/CINC-3: as §1
We sacrificed surviving animals 24 hours after intratracheal LPS administration. At necropsy, the bronchoalveolar lavage (BAL) was collected by intratracheal injection of 1.5 mL PBS into the right lobe of the lung, followed by a gentle aspiration at least 3 times. Pooled, recovered fluid was centrifuged at 1,500 rpm for 10 min at 4° C., and was used to measure cytokines (e.g. IL-6) and pulmonary protein levels. This same right lobe was collected for tissue homogenization from each rat for MIP-2/CINC-3 activity analysis.
The plate was subjected to 5 washes before an enzyme-linked polyclonal CINC-3 was added and allowed to bind for 2 hours. The wells were washed another 5 times before a substrate solution was added to the wells and the enzymatic reaction was allowed to commence for 30 minutes at room temperature protected from light. […] The absorbance of each well was read at 450 nm (with a 580 nm correction) and compared to a standard curve of CINC-3 in order to approximate the amount of CINC-3 in each rat lung homogenate sample.

With `Oc1cc(O)c2c(c1)OC(c1ccc(O)c(O)c1)C(O)C2` (stereo not shown) [Catechin], the IC50 (as a rule, the concentration needed to halve the response being measured) in assay [1] was 415 µM; in [2] it was 40 µM; in the assay on COX-1, 80 µM. In addition, in the assay with COX-2, the “selectivity for COX-2” value is reported as “no selectivity for COX-2”.
Take `Oc1ccc(C=Cc2cc(O)cc(O)c2)cc1` [RES, resveratrol]: the “reduction in the level of HMGB1 expression vs vehicle-treated hyperoxia and infection” value with HMGB1 was found to be 74.9%. Moreover, in the assay on HMGB1 (densitometry arbitrary unit, hyperoxia and PA), the “HMGB1 expression in airways (Mean ± SD)” value was 29.2 ± 16.5 AU. Moreover, in the assay with BAL total protein, the “BAL Total protein content (Mean ± SE)” value stood at 526.0 ± 15.5 µg/mL. In addition, the “bacterial load in lung homogenate (Mean ± SD)” value with Pseudomonas aeruginosa [3] is 0.02 ± 0.02 ×10^5 CFU/mL. The “bacterial load in the airways (Mean ± SD)” value in the assay on Pseudomonas aeruginosa [4] is recorded as 2.4 ± 0.6 ×10^5 CFU/mL.
As to `CCCC(=O)[O-].[Na+]` [Sodium Butyrate], the “reduction in lung homogenate CINC-3 level vs vehicle” value in the assay with MIP-2/CINC-3 turned out to be 17.7%. In addition, the “reduction in serum TNF-α level against the vehicle control” value with TNF-α is listed as 67.9%. The Mortality rate in assay [5] (24 hr post LPS) is reported as 15.38%; in assay [5] (36 hr post LPS), 46.15%; in [5] (48 hr post LPS), 53.85%; in [5] (60 hr post LPS), 61.54%; in [5] (72 hr post LPS) it was 61.54%; in [5] (96 hr post LPS), 69.23%. Moreover, the Mortality rate in assay [5] (120 hr post LPS) was found to be 69.23%; in assay [5] (setting [8]), 69.23%; in [5] it was 0.00%. Moreover, the Survival rate was 84.6% in assay [5] (24 hr post LPS); 53.9% and 53.8% in assay [5] (36 hr post LPS, listed as SB); 46.2% in [5] (48 hr post LPS); 38.5% in [5] (60 hr post LPS); 38.5% in assay [5] (72 hr post LPS, listed as SB); 30.8% in [5] (96 hr post LPS). Also, the Survival rate in assay [5] (120 hr post LPS) is given as 30.8%; in assay [5] (setting [8]), 30.8%; in assay [5], 100.0%. Besides, the “Deceased (total)” value in assay [5] (up to 144 hours post LPS, N=13) is given as 9. Also, the “Survived (total)” value in assay [5] (up to 144 hours post LPS, N=13) worked out at 4. Further, the “changes in the histopathology evaluation relative to vehicle” value in [6] (SB 500 mg/kg, UP446 low-dose 125 mg/kg) is “minimal changes”. Also, the “Overall Lung Damage Severity” value in assay [6] (Score 0-4, UP446 high dose 250 mg/kg, Sodium Butyrate 500 mg/kg) turned out to be 3.05 ± 0.42. In addition, the “Infiltration of PMN cell” value in [6] (scores 0-4, UP446 high dose 250 mg/kg, Sodium Butyrate 500 mg/kg) stood at 2.75 ± 0.78. In addition, in [7], the “Survival Rate (%) after 82 hr” value was 50%. Moreover, the “reduction of BAL CRP level relative to vehicle” value in the assay with CRP is on record as “moderate reduction in CRP level without statistical significance”. For the same molecule, the “reduction in serum IL-1β level (printed IL-10 for UP446)” value in the assay on IL-1β is 65.3%.

These data come from US20220031654A1, “Standardized Bioflavonoid Composition for Regulation of Homeostasis of Host Defense Mechanism” (priority 2020, published 2022).
